From patent publication US20230398227A1, “MEDICINE FOR TREATING CANCER” (CHIOME BIOSCIENCE INC., priority 2020, published 2023)

Columns and labels:
[1] = system: Hep3B xenograft tumor; assay: Immunostaining for Ki-67 and cleaved caspase-3 in Hep3B xenograft tumor at 48 hours after administration; assay type: in vivo, NOD-SCID mice; details: HuBA-1-3D 1 mg/kg i.p., H3B-6527 50 mg/kg, FGF-401 10 mg/kg, BLU-554 30 mg/kg oral, alone or combined
Procedure: (§1) Hep3B cells (1×10^6 cells) were transplanted subcutaneously into the right flank of NOD-SCID mice. At the stage where the tumor volume reached 250 to 350 mm 3, these mice were divided into the following 8 groups of 6 mice each, and administered from the same day: • the Vehicle group; • the group receiving HuBA-1-3D (1 mg/kg); • the group receiving H3B-6527 (50 mg/kg); • the group receiving FGF-401 (10 mg/kg); • the group receiving BLU-554 (30 mg/kg); • the group receiving HuBA-1-3D (1 mg/kg)+H3B-6527 (50 mg/kg); • the group receiving HuBA-1-3D (1 mg/kg)+FGF-401 (10 mg/kg); and • the group receiving HuBA-1-3D (1 mg/kg)+BLU-554 (30 mg/kg).
(§2) HuBA-1-3D was intraperitoneally administered, while FGFR4 inhibitors (H3B-6527, FGF-401 and BLU-554) were orally administered. At 48 hours after administration, three mice in each group were sacrificed to excise their tumors, and the tumors were fixed in 10% formalin and then embedded in paraffin to prepare sections for immunostaining. In addition, tissue extracts were prepared for Western blotting.
Cancer cell proliferation and apoptosis in the Hep3B tumor at 48 hours after administration were analyzed by immunostaining in which Ki-67 or cleaved caspase-3 expression was used as an indicator.

[2] = system: human hepatic cancer cell line Hep3B xenograft; assay: Antitumor effect in Hep3B xenograft therapeutic model, HuBA-1-3D and BLU-554; assay type: in vivo, mouse; details: alone or combined
Description: (§3) In an attempt to further verify the enhancing effect on antitumor activity upon combined administration of HuBA-1-3D antibody and FGFR4 inhibitor as in the case of the above examples, the antitumor effect obtained upon combined administration of BLU-554 and HuBA-1-3D was studied in a xenograft therapeutic model based on the human hepatic cancer cell line Hep3B, wherein BLU-554 inhibits FGFR4-specific tyrosine kinase activity by specifically binding to cysteine at amino acid position 552 of the ATP-binding region present in the region located at amino acid positions 545 to 562 of FGFR4 (Cancer Discov. 2019 December; 9(12):1696-1707), as in the case of H3B-6527 and FGF-401.
Hep3B cells (1×10^6 cells) were transplanted (Day 0), and at the point of time when the mean tumor volume exceeded 100 mm^3 (Day 14), animals were divided into the following 4 groups and administered from the same day: • the Vehicle group (N=8); • the group receiving BLU-554 (30 mg/kg body weight, twice a day) (N=8); • the group receiving HuBA-1-3D (1 mg/kg body weight) (N=8); and • the group receiving BLU-554 (30 mg/kg body weight) and HuBA-1-3D (1 mg/kg body weight) (N=8).
HuBA-1-3D was intraperitoneally administered once a day 4 times in total on Days 14, 17, 21 and 24, while BLU-554 was orally administered twice a day 10 times in total on Days 14, 15, 16, 17, 18, 21, 22, 23, 24 and 25. […]

[3] = system: Hep3B xenograft tumor; assay: Western blotting of apoptosis markers and cyclin B1 in Hep3B xenograft tumor at 48 hours after administration; assay type: in vivo, NOD-SCID mice; details: three animals per group, HuBA-1-3D 1 mg/kg, H3B-6527 50 mg/kg, FGF-401 10 mg/kg, BLU-554 30 mg/kg
Procedure: as §1, §2
Subsequently, apoptosis (cleaved caspase-3 and Cleaved PARP) and cancer cell proliferation (cyclin B1) in the Hep3B xenograft tumor upon administration of each agent were analyzed by Western blotting.

[4] = system: human hepatic cancer cell line Hep3B xenograft; assay: Antitumor effect in Hep3B xenograft therapeutic model, HuBA-1-3D and FGF-401; assay type: in vivo, NOD-SCID mice; details: alone or combined
Description: as §3, with “Then, in” for “In”, “(FGF-401),” for “as in the case of the above examples,”, “FGF-401” for “BLU-554”, “(Mol. Cancer Ther.” for “(Cancer Discov.”, “18(12):2194-2206),” for “9(12):1696-1707),”, “H3B-6527.” for “H3B-6527 and FGF-401.”
Hep3B cells (1×10^6 cells) were transplanted subcutaneously into the right flank of NOD-SCID mice (Day 0). At the stage where the mean tumor volume exceeded 100 mm^3 (Day 14), the mice were divided into the following 6 groups, and administered from the same day: • the Vehicle group (N=8); • the group receiving FGF-401 (10 mg/kg body weight, twice a day) (N=8); • the group receiving HuBA-1-3D (0.3 mg/kg body weight) (N=8); • the group receiving HuBA-1-3D (1 mg/kg body weight) (N=8); • the group receiving FGF-401 (10 mg/kg body weight) and HuBA-1-3D (0.3 mg/kg body weight) (N=8); and • the group receiving FGF-401 (10 mg/kg body weight) and HuBA-1-3D (1 mg/kg body weight) (N=8).
HuBA-1-3D was intraperitoneally administered once a day 4 times in total on Days 14, 17, 21 and 24, while FGF-401 was orally administered twice a day 10 times in total on Days 14, 15, 16, 17, 18, 21, 22, 23, 24 and 25. The combined administration of HuBA-1-3D and FGF-401 was performed 4 times in total on Days 14, 17, 21 and 24. In each group, a mouse whose tumor volume exceeded 1,500 mm^3 was sacrificed at that point of time.

[5] = system: human hepatic cancer cell line Hep3B xenograft; assay: Antitumor effect in Hep3B xenograft therapeutic model, HuBA-1-3D and H3B-6527; assay type: in vivo, NOD-scid mice; details: alone or combined
Description: The antitumor effect obtained upon combined administration of HuBA-1-3D antibody and H3B-6527 serving as a small molecule inhibitor against FGFR4 (Cancer Res. 2017 Dec. 15; 77(24):6999-7013) was studied in a xenograft therapeutic model based on the human hepatic cancer cell line Hep3B. • (1) Hep3B cells were transplanted subcutaneously into the right flank of NOD-scid mice (Day 0). At the stage where the mean tumor volume reached around 100 mm^3 (Day 14), the mice were divided into the following 6 groups, and administered from the same day for 11 days with HuBA-1-3D at a frequency of twice a week (Days 14, 18, 22 and 25) and/or with H3B-6527 twice a day (BID) and five times a week in a cycle of administration for 5 days and withdrawal for 2 days (Days 14, 15, 16, 17, 18, 21, 22, 23, 24 and 25): • the Vehicle group (N=8) • the group receiving H3B-6527 (50 mg/kg body weight, twice a day) (N=8); • the group receiving HuBA-1-3D (0.3 mg/kg body weight) (N=8); • the group receiving HuBA-1-3D (1 mg/kg body weight) (N=8); • the group receiving H3B-6527 (50 mg/kg body weight) and HuBA-1-3D (0.3 • mg/kg body weight) (N=8); and • the group receiving H3B-6527 (50 mg/kg body weight) and HuBA-1-3D (1 mg/kg body weight) (N=8).
The tumor volume was measured at a frequency of twice a week, and an animal whose tumor volume reached 1,500 mm^3 was excluded from observation.

[6] = target: FGFR4 (Homo sapiens, UniProt P22455); details: reported in Mol Cancer Ther (2014); 13(11); 2547-58; read-out: tyrosine kinase inhibitory activity (IC50) against FGFR4; cited from earlier work
Chain of FGFR4 (P22455 22-802): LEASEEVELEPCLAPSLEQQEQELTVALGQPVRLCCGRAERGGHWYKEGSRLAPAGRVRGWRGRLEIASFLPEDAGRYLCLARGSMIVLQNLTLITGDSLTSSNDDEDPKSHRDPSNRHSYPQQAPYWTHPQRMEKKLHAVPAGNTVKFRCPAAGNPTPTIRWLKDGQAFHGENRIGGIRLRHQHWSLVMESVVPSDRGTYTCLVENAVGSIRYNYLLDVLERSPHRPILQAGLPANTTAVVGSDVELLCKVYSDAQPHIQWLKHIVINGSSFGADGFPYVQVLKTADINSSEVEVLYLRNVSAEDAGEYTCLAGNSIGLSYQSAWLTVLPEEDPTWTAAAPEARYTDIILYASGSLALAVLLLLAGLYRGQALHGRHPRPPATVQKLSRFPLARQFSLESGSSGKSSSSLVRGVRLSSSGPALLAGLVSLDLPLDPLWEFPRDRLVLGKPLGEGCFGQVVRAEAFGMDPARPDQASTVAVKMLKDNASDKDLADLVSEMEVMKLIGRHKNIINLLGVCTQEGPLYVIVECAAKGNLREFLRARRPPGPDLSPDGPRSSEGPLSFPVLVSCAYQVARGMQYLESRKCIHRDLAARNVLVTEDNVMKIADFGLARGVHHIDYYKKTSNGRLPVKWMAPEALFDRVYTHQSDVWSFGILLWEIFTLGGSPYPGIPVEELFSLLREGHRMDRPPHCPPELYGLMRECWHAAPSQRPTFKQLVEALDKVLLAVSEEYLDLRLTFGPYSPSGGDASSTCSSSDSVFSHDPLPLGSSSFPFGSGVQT

[7] = system: human hepatic cancer cell line Hep3B xenograft; assay: Antitumor effect in Hep3B xenograft therapeutic model, HuBA-1-3D and CH518324/Debio1347; assay type: in vivo, mice; details: alone or combined
Description: In each group, a mouse whose tumor volume exceeded 1,500 mm^3 was sacrificed at that point of time.

## C=CC(=O)N[C@H]1CCOC[C@H]1Nc1ncc2cc(-c3c(Cl)c(OC)cc(OC)c3Cl)ccc2n1 [BLU-554, N-[(3 S,4S)-3-[[6-(2,6-dichloro-3,5-dimethoxyphenyl)quinazolin-2-yl]amino]oxan-4-yl]prop-2-enamide]
[1]
  apoptotic cells stained with cleaved caspase-3 in the tumor: not detected
  proportion of cancer cells stained with Ki-67 compared to the Vehicle group: no change
[2]; Day 38 (13 days after final administration), BLU-554 30 mg/kg twice a day oral, HuBA-1-3D 1 mg/kg i.p.
  mean tumor volume: 688.8±562.4 mm^3
[2]; Day 38, vs Vehicle, BLU-554 30 mg/kg, HuBA-1-3D 1 mg/kg
  T/C: 63.7%
[3]
  expression level of cyclin B1 (cell proliferation marker) compared to the Vehicle group: no difference
  expression of apoptosis markers (Cleaved caspase-3 and cleaved PARP): induced in none of the three animals

## COCCNc1cc(NC(=O)N2CCCc3cc(CN4CCN(C)CC4=O)c(C=O)nc32)ncc1C#N [FGF-401, N-[5-cyano-4-[(2-methoxyethyl)amino]-2-pyridinyl]-7-formyl-3,4-dihydro-6-[(4-methyl-2-oxo-1-piperazinyl)methyl]-1,8-naphthyridine-1(2H)-carboxamide]
[1]
  apoptotic cells stained with cleaved caspase-3 in the tumor: not detected
  proportion of cancer cells stained with Ki-67 compared to the Vehicle group: no change
[4]; Day 28 (3 days after final administration), FGF-401 10 mg/kg twice a day oral, HuBA-1-3D 1 mg/kg i.p.
  tumor volume: 388.9±94.8 mm^3
[4]; Day 28, vs Vehicle, FGF-401 10 mg/kg, HuBA-1-3D 1 mg/kg
  T/C: 56.8%
[4]; Day 35 (10 days after final administration), FGF-401 10 mg/kg, HuBA-1-3D 1 mg/kg, Dunnett
  antitumor effect compared to tumor volume in the Vehicle group: significant antitumor effect
[3]
  expression level of cyclin B1 (cell proliferation marker) compared to the Vehicle group: no difference
  expression of apoptosis markers (Cleaved caspase-3 and cleaved PARP): induced in none of the three animals

## C=CC(=O)Nc1cc(N2CCN(CC)CC2)ccc1Nc1cc(N(C)C(=O)Nc2c(Cl)c(OC)cc(OC)c2Cl)ncn1 [H3B-6527, N-{2-[(6-{[(2,6-dichloro-3,5-dimethoxyphenyl)carbamoyl](methyl)amino}-4-pyrimidinyl)amino]-5-(4-ethyl-1-piperazinyl)phenyl}acrylamide]
[1]
  apoptotic cells stained with cleaved caspase-3 in the tumor: not detected
  proportion of cancer cells stained with Ki-67 compared to the Vehicle group: no change
[5]; Day 32 (7 days after completion of administration), H3B-6527 50 mg/kg twice a day, HuBA-1-3D 1 mg/kg twice a week
  tumor volume: 647.8±146.2 mm^3
[5]; Day 32, vs Vehicle, H3B-6527 50 mg/kg twice a day, HuBA-1-3D 1 mg/kg
  T/C: 47%
[5]; Day 38 (13 days after final administration), H3B-6527 50 mg/kg, HuBA-1-3D 1 mg/kg
  tumor volume: 1222.0±326.5 mm^3
[5]; Day 38, H3B-6527 50 mg/kg, HuBA-1-3D 1 mg/kg
  tumor presence / tumor disappearance at excision (animals): all the 8 animals in each group were confirmed to have tumor
[5]; tumors excised on Day 38, H3B-6527 50 mg/kg, HuBA-1-3D 1 mg/kg
  tumor weight: 1.010 ± 0.260 g
[3]
  expression level of cyclin B1 (cell proliferation marker) compared to the Vehicle group: no difference
  expression of apoptosis markers (Cleaved caspase-3 and cleaved PARP): induced in none of the three animals

## Cc1nc2ccc(-n3ncc(C(=O)c4cc5ccccc5[nH]4)c3N)cc2[nH]1 [CH518324/Debio1347]
[6]
  IC50: 290 nM
[7]; Day 31 (6 days after final administration), CH518324/Debio1347 50 mg/kg once a day oral, HuBA-1-3D 1 mg/kg i.p.
  mean tumor volume: 673.8±271.8 mm^3
[7]; Day 31, vs Vehicle, CH518324/Debio1347 50 mg/kg, HuBA-1-3D 1 mg/kg
  T/C: 56.2%
